In this assay the test system is NCI-H295R. The assay is described as follows: IC50 (antiproliferative, ATP content). Particulars: 48 h. In short, it runs like this:
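Cell viability of adrenocortical carcinoma cells was assessed as ATP by CellTiter-Glo luminescence. Cells at 1500 per well in 1536-well plates, in serum-free DMEM with ITS, received compounds by pin transfer at 8 final concentrations (0.6 nM–46 µM) after overnight culture and were then held 48 h at 37 °C, 5% CO2. IC50 was calculated by logistic fitting against vehicle and positive-control wells, compounds with no concentration response being recorded as above the top dose.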
On to `CN1CCN2c3ccccc3Cc3ccccc3C2C1` (centres undefined), for which the IC50 – broadly, the point on the concentration scale where inhibition reaches its midpoint – is more than 46 µM.
The same measure for `OC[C@@H](O)[C@@H](O[C@@H]1O[C@H](CO)[C@H](O)[C@H](O)[C@H]1O)[C@H](O)[C@@H](O)CO`: more than 46 µM.
The result for `CN1CCC(OC(=O)C(Oc2ccc(Cl)cc2)Oc2ccc(Cl)cc2)CC1` reads more than 46 µM; that for `CCCCCC(N)=O`, more than 46 µM; that for `CCC1(CC)C(=O)C=CNC1=O`, more than 46 µM.
The same measure for `O=C(CCN1CCN(CCO)CC1)N1c2ccccc2Sc2ccc(C(F)(F)F)cc21`: more than 46 µM.
`NC(=S)N/N=C/c1cccnc1`: the half-maximal inhibitory concentration (IC50) was more than 46 µM.
The result for `CC(O)[C@H]1CC[C@H]2[C@@H]3CC[C@@H]4C[C@@H](O)CC[C@]4(C)[C@H]3CC[C@]12C` (some centres undefined) reads more than 46 µM; that for `CCNC(=O)NCc1cccc(Cl)c1`, more than 46 µM; that for `CCCCCCCCCC(CC)c1ccc(S(=O)(=O)[O-])cc1.[Na+]` (centres undefined), more than 46 µM.
For the compound `Nc1ccc(N)cc1`, the IC50 is more than 46 µM.
With `CCCc1cc(C(N)=S)ccn1`, the IC50 is more than 46 µM.
Consider `OC(Cn1cncn1)(Cn1cncn1)c1ccc(F)cc1F`, for which the IC50 is more than 46 µM.
The result for `CO/N=C(\C(=O)N[C@@H]1C(=O)N2C(C(=O)O)=C(Cn3ccc(=N)n3CCO)CS[C@H]12)c1csc(N)n1.O=S(=O)(O)O` reads more than 46 µM.
With `CC(=O)c1ccc2c(c1)N(CCCN1CCC(CCO)CC1)c1ccccc1S2`, the 50% inhibitory concentration (IC50) is more than 46 µM.
Take `CCCc1c(OCCCCc2nnn[nH]2)ccc(C(C)=O)c1O`: the IC50 was more than 46 µM.
The result for `c1ccc2ccccc2c1` reads more than 46 µM.
`CCN[C@@H]1C[C@H](N)[C@@H](OC2OC(CN)=CCC2N)[C@H](O)[C@H]1O[C@H]1OC[C@](C)(O)[C@H](NC)[C@H]1O.CCN[C@@H]1C[C@H](N)[C@@H](OC2OC(CN)=CCC2N)[C@H](O)[C@H]1O[C@H]1OC[C@](C)(O)[C@H](NC)[C@H]1O.O=S(=O)(O)O.O=S(=O)(O)O.O=S(=O)(O)O.O=S(=O)(O)O.O=S(=O)(O)O` (some centres undefined) displayed an IC50 of more than 46 µM.
The same measure for `CCN1CC(CCN2CCOCC2)C(c2ccccc2)(c2ccccc2)C1=O.Cl` (centres undefined): more than 46 µM; for `O=[N+]([O-])c1ccc([As](=O)(O)O)cc1`: more than 46 µM; for `CN(C)CCOC(=O)C(c1ccccc1)C1(O)CCCC1.Cl` (centres undefined): more than 46 µM.
In turn, `CCOC(=O)c1cncn1C(C)c1ccccc1` (centres undefined) came in with an IC50 of more than 46 µM.
The same measure for `CN1CCCN=C1COC(=O)C(O)(c1ccccc1)C1CCCCC1.Cl` (centres undefined): more than 46 µM; for `O=C1c2ccccc2C(=O)C1c1ccc(F)cc1`: more than 46 µM; for `CCOC(=O)c1c(N)sc2c1CCN(Cc1ccccc1)C2.Cl`: more than 46 µM.
The result for `C[C@H]1O[C@H](OC[C@@H]2O[C@H](Oc3c(-c4ccc(OCCO)c(OCCO)c4)oc4cc(OCCO)cc(O)c4c3=O)[C@@H](O)[C@H](O)[C@H]2O)[C@@H](O)[C@@H](O)[C@@H]1O` reads more than 46 µM.
The result for `Cl.O=C(COc1ccc(Cl)cc1)N1CCN(Cc2ccc3c(c2)OCO3)CC1` reads more than 46 µM; that for `O=C1[C@@]([C@](CC5)(C)[C@]4([H])C([C@H]5O[C@@H]3[C@H](O[C@H]7[C@H](O)[C@@H](O)[C@H](O)[C@@H]([C@](O)=O)O7)[C@@H](O)[C@H](O)[C@@H]([C@@](O)=O)O3)(C)C)([H])[C@](CC4)(C)[C@@]2(C)C([C@]([C@@]6(C)CC2)([H])C[C@@](CC6)(C)[C@@](O)=O)=C1`, more than 46 µM.
In the case of `N=C(N)NCCCC[C@@H]1NC(=O)CCSSC[C@@H](C(N)=O)NC(=O)[C@@H]2CCCN2C(=O)[C@H](Cc2c[nH]c3ccccc23)NC(=O)[C@H](CC(=O)O)NC(=O)CNC1=O`, the IC50 is more than 46 µM.
The same measure for `CN1C(C)(C)CCCC1(C)C.O=C(O)[C@@H](O)[C@H](O)C(=O)O`: more than 46 µM; for `c1ccc2sc(SN3CCOCC3)nc2c1`: more than 46 µM; for `C[C@H]1C(=O)NC2=Nc3cccc(Cl)c3CN21`: more than 46 µM.
In the case of `O=C(OC(C)C)/C(C(OC(C)C)=O)=C1SC=CS/1`, the IC50 was more than 46 µM.
The same measure for `C[N+](C)(C)CCOC(N)=O.[Cl-]`: more than 46 µM; for `C[C@H](CCC(=O)O)[C@H]1CC[C@H]2[C@@H]3[C@H](O)C[C@@H]4C[C@H](O)CC[C@]4(C)[C@H]3CC[C@]12C`: more than 46 µM.
`Cc1ccc(S(=O)(=O)[N-]Cl)cc1.O.O.O.[Na+]` showed an IC50 of more than 46 µM.
On to `O=[C@](OC)[C@H]3[C@@]2([H])C[C@](N4C[C@]([H])2C[C@H](OC)[C@@H]3OC)([H])C1=C(CC4)C(C=C5)=C(C=C5OC)N1.Cl`, for which the IC50 was more than 46 µM.
The same measure for `CCCCCCOC(=O)c1cccnc1`: more than 46 µM; for `Cc1ncc2n1-c1ccc(Cl)cc1C(c1ccccc1F)=NC2.Cl`: more than 46 µM; for `CN1CCc2c(c3ccccc3n2Cc2ccccc2)C1.CN1CCc2c(c3ccccc3n2Cc2ccccc2)C1.O=S(=O)(O)c1cccc2c(S(=O)(=O)O)cccc12`: more than 46 µM.
For the compound `CCN(CC)C(=O)N[C@@H]1C=C2c3cccc4[nH]cc(c34)C[C@@H]2N(C)C1`, the IC50 was more than 46 µM.
Compound `CCN(CC)CCOCCOC(=O)C(CC)(CC)c1ccccc1.O=C(O)CC(O)(CC(=O)O)C(=O)O` displayed an IC50 of more than 46 µM.
The same measure for `C=C1C[C@H]2[C@@H]3C=C(C)C4=CC(=O)CC[C@]4(C)[C@H]3CC[C@]2(C)[C@@]1(OC(C)=O)C(C)=O`: more than 46 µM.
The same measure for `O=P(O)(O)CP(=O)(O)O`: more than 46 µM; for `Cc1c(I)c(=O)n(-c2ccccc2)n1C`: more than 46 µM.
For the compound `C#C[C@]1(O)CC[C@H]2[C@@H]3CCC4=CC(=O)CC[C@@H]4[C@H]3CC[C@@]21CC`, the IC50 was more than 46 µM.
The same measure for `CC(C)NCC(O)COc1ccccc1-n1cccc1` (centres undefined): more than 46 µM; for `CCCCC/C=C\C/C=C\C/C=C\C/C=C\CCCC(=O)NCC(=O)O`: more than 46 µM.
The same measure for `COc1c(N2CCNC(C)C2)c(F)cc2c(=O)c(C(=O)O)cn(C3CC3)c12` (centres undefined): more than 46 µM; for `Cl.O=C1NCC2(CCN(CCc3ccccc3)CC2)O1`: more than 46 µM; for `C[C@]43CCC(=O)\C=C4\CC[C@@H]1[C@@H]3CC[C@]2(C)[C@H](O)CC[C@@H]12`: more than 46 µM.
Consider `C=CCN1CCCC1CNC(=O)c1cc(S(N)(=O)=O)cc(OC)c1OC` (centres undefined), for which the IC50 was more than 46 µM.
Regarding `Cl.Nc1c(Br)cc(Br)cc1CN[C@H]1CC[C@H](O)CC1`, the IC50 is more than 46 µM.
`CN1CCN(c2c(F)cc3c(=O)c(C(=O)O)cn(CCF)c3c2F)CC1` gave an IC50 of more than 46 µM.
The same measure for `O=C([C@H]([C@]4=CC=CC=C4)CO)O[C@@H]1C[C@@H]3[C@@H]2[C@@H](O2)[C@@H]([N@+]([O-])3C)C1.Br`: more than 46 µM; for `COc1ccc(CN(CCN(C)C)c2ncccn2)cc1.Cl`: more than 46 µM.
The same measure for `COc1ccc(Cc2nccc3cc(OC)c(OC)cc23)cc1OC.Cl`: more than 46 µM; for `O=C2N1[C@]([C@@]([H])2NC(C(CC)OC3=CC=CC=C3)=O)([H])SC(C)(C)[C@@H]1[C@@](O)=O` (some centres undefined): more than 46 µM.
In turn, `CC(=O)NCCCS(=O)(=O)[O-].CC(=O)NCCCS(=O)(=O)[O-].[Ca+2]` had an IC50 of more than 46 µM.

The values above are taken from the supplement of paper PMC3493320.
